Measured values taken from patent US8202995B2, “Pharmaceutically acceptable salts of aporphine derivatives and carboxyl group-containing agents and methods for preparing the same” (Standard Chem. & Pharm. Co., Ltd., priority 2008, dated 2012).

Experiments:
[1] = Free radical scavenging of 1,1-diphenyl-2-picryl-hydrazyl (DPPH); format: biochemical; conditions: DPPH 100 μM, 30 min, absorbance at 517 nm, FIGS. 2-8
Protocol: After 30 min, the absorbance (O.D.) was monitored spectrophotometrically at 517 nm. The activity in inhibiting free radical DPPH results in the decrease of absorbance.

[2] = Oxygen radical absorbing capacity, Method B (fluorescenin fluorescence decay, AAPH); format: biochemical; conditions: test substance 1 μM, 18.75 mM AAPH, 0.06 μM fluorescenin, 37° C., pH 7.4, FIGS. 10-16
Protocol: In order to evaluate the oxygen radical absorbing capacity of test compounds. The automated assay was carried out as described in a previous report by Gillespie and co-workers (Gillespie et al., 2007). The experiment was conducted at 37° C. under pH 7.4 condition with a blank sample in parallel. Briefly, 2, 2′-azobis (2-amidinopropane) dihydrochloride (AAPH) was used as a peroxyl generator. The final reaction mixture for each black microplat in a 96-well microplate assay contained 0.06 μM fluorescenin, 18.75 mM AAPH and appropriate test substance (1 μM) in 75 mM phosphate buffer. Test substance was directly dissolved in DMSO and diluted with 75 mM potassium phosphate buffer (pH 7.4) for analysis. The analyzer was programmed to record the fluorescence of fluorescenin every minute after the addition of AAPH. All fluorescent measurements are expressed relative to the initial reading (excitation at 485 nm and emission at 530 nm) on a FLUOstar Galaxy plate reader (Roche Diagnostic System Inc., Branchburg, N.J.). Raw data were exported from the Fluostar Galaxy software to an Excel (Microsoft, Roselle, Ill.) sheet for further calculations. All the reaction mixtures were prepared in duplicate, and at least three independent assays were performed for each sample. (Gillespie, K M et al., Nature Protocols 2007; 2: 867-870.)

[3] = PROGRESS (n=6105), individuals with cerebrovascular disease; cited from earlier work
[4] = HOPE (n=9297), patients with high cardiovascular risk; cited from earlier work
[5] = Protection from peroxy radical-induced damage, Method A (β-phycoerythrin fluorescence, AAPH); format: biochemical; conditions: test compound 5×10^−6 M, AAPH 25 mM, β-phycoerythrin 5 nM, pH 7.4, FIG. 9
Excerpt: In order to evaluate the effect of test compounds in scavenging hydrophilic peroxy radical, the experiment was executed with reference to the method described by Tsuchiya et al. (Methods Enzymol 1992, 213: 460-472). In the experiment, peroxides will react with fluorescent substances and thus inflect observed fluorescence intensity. Thereby, the effect of test compounds in free radical scavenging can be evaluated by measuring the variation of the fluorescence intensity after the addition of test compounds.
First, to a silicate tube was added a phosphate solution (2 ml, pH 7.4), followed by the addition of β-phycoerythrin (5 nM) to increase relative fluorescence intensity. After 5 minutes, 2,2′-azobis (2-amidinopropane)dihydrochloride (25 mM, AAPH) was added therein. Subsequently, through a fluorescent spectrometry (Shimadzu RF-5301PC, Japan), the fluorescence intensity of β-phycoerythrin was measured by excitation at 540 nm and emission at 570 nm. Then, the test compounds (5×10^−6 M) was further added therein to observe the variation of the fluorescence intensity, in which 0.1% DMSO was taken as a control group.

[6] = test system: lipid peroxidase, Dunkin Hartley Guinea pig liver microsomes; test: Activity in inhibiting lipid peroxidase (malondialdehyde quantitation); format: biochemical; conditions: 10 μM, 20 minutes/37° C.
Protocol: The assay was executed with reference to the method described in Biochem Biophys Res Commun. Mar. 28, 1986; 135(3): 1015-21.
• (a) Source: Dunkin Hartley Guinea pig liver microsomes • (b) Substrate: Polyunsaturated fatty acid • (c) Vehicle: 1% DMSO • (d) Pre-Incubation Time/Temp: 15 minutes/37° C. • (e) Incubation Time/Temp: 20 minutes/37° C. • (f) Incubation Buffer: 0.25 M Potassium Phosphate, pH 7.4, 0.1 mM EDTA • (g) Quantitation Method: Spectrophotometric quantitation of Malondialdehyde

[7] = test system: vascular smooth muscle cells of rats; test: Protecting activity in vascular smooth muscle cells against H2O2 (MTT); format: cell-based, rat; conditions: 10 μM compound, 30 minutes before H2O2 200 μM for 24 hours, FIG. 17
Protocol: The vascular smooth muscle cells of rats (2×10^4 cells/mL×1 mL) were quantitatively seeded in 24-well plates, and cultured in Dulbecco's modified Eagle medium (DMEM) with 10% fetal bovine serum (FBS) for 24 hours to achieve cell adhesion. After cell adhesion, the DMEM medium with 10% fetal bovine serum was replaced with a fresh DMEM medium with 0.1% fetal bovine serum to perform cell culture for 48 hours.
Next, each test compound was added in the cultures (final concentration: 0.1, 1, 10 μM). After 30 minutes, H2O2 (200 μM) was added therein to perform reaction for 24 hours in an incubator. Subsequently, in a light-proof environment, MTT (100 μL) was added into each well to perform reaction at 37° C. for 3 hours. The supernatant liquor was removed and then isopropanol (500 μL) was added, followed by shaking for 10 minutes. After standing for 10 minutes, supernatant liquor (200 μL) was transferred into 96-well plates. Finally, the absorbance value (O.D.) was monitored at 540 nm (OD540) and 630 nm (OD630). Based on the measured absorbance values (OD540-OD630), the effect of these test compounds on cell growth can be evaluated, as shown in FIG. 3.

Compound | activity in free radical scavenging of DPPH in comparison with carboxyl group-containing agent alone and thaliporphine alone [1] | activity in free radical scavenging of APPH in comparison with carboxyl group-containing agent alone and aporphine alone [2] | also measured
salsalate salt of thaliporphine | much higher activity | much higher activity | 
nateglinide salt of thaliporphine | much higher activity | much higher activity | 
CCC[C@H](N[C@@H](C)C(=O)N1[C@H](C(=O)O)C[C@@H]2CCCC[C@@H]21)C(=O)OCC [perindopril] |  |  | reduction of recurrent stroke [3]: 28%
Captopril salt of Thaliporphine | much higher activity | much higher activity | 
CCOC(=O)[C@H](CCc1ccccc1)N[C@@H](C)C(=O)N1[C@H](C(=O)O)C[C@@H]2CCC[C@@H]21 [ramipril] |  |  | reduction of composite outcome (cardiovascular death, myocardial infarction and cerebrovascular accident) [4]: 22%
COc1cc2c(cc1OC)-c1c(O)c(OC)cc3c1C(C2)N(CC(=O)Nc1c(C)cccc1C)CC3 (stereo not shown) [Compound 2] |  |  | protection of β-phycoerythin from peroxy radical AAPH-induced damage (fluorescence degradation) [5]: can protect β-phycoerythin; Inhibition (%) [6]: 70%; inhibition of H2O2-induced damage to vascular smooth muscle cells [7]: slightly inhibited
Atorvastatin salt of Thaliporphine | much higher activity | much higher activity | 
COc1cc2c(cc1OC)-c1c(OC)c(OC)cc3c1C(C2)N(C)CC3.O=C(O)C=Cc1ccc(Cn2ccnc2)cc1 (stereo not shown) [ozagrel salt of glaucine] |  | much higher activity | 
bezafibrate salt of thaliporphine | much higher activity | much higher activity | 
CC(=O)NC(CS)C(=O)O.COc1cc2c(cc1O)CC1c3c(cc(OC)c(OC)c3-2)CCN1C (stereo not shown) [acetylcysteine salt of thaliporphine, Acetylcysteine salt of Thaliporphine] | much higher activity | much higher activity | 
COc1cc2c(cc1OC)-c1c(O)c(OC)cc3c1C(C2)N(CC(O)COc1ccccc1OC)CC3 (stereo not shown) [Compound 1] |  |  | protection of β-phycoerythin from peroxy radical AAPH-induced damage (fluorescence degradation) [5]: can protect β-phycoerythin; Inhibition (%) [6]: 64%; inhibition of H2O2-induced damage to vascular smooth muscle cells [7]: significantly inhibited
Telmisartan salt of Thaliporphine | much higher activity |  | 
